# Laboratory results from publication PMC5791048 (Journal of Natural Products, 2017).
# Assay: A549 cytotoxicity assay
# Assay type: cell-based
# Conditions: human, A549 cells (human lung carcinoma)
row,Structure (SMILES),IC50 at 72 h
1,"C=C(C)[C@@H]1CC(=O)[C@H]2[C@H](C1)[C@@H]1C(=O)O[C@@H]3C[C@]4(C)O[C@H]2C(=O)[C@@H]4[C@H]13 [ineleganolide (7), ineleganolide]",> 50 mg/L
2,"C=C(C)[C@@H]1/C=C/[C@]23O[C@H]2[C@H](C[C@@]2(C)O[C@@H]2C2=CC(C=O)=C(C1)O2)OC3=O [keikipukalide A (1), keikipukalide A]",> 50 mg/L
3,"C=C(C)[C@H]1CC2=C(C=O)C=C(O2)[C@H]2O[C@]2(C)C[C@@H]2OC(=O)/C(=C\[C@H]1OC(C)=O)[C@H]2OC(C)=O [keikipukalide B (2), keikipukalide B]",> 50 mg/L
4,"C=C(C)[C@@H]1C/C=C2\C(=O)O[C@@H](C[C@@]3(C)O[C@@H]3C3=CC(C=O)=C(C1)O3)[C@@H]2OC(C)=O [keikipukalide C (3), keikipukalide C]",> 50 mg/L
5,"C=C(C)[C@@H]1/C=C/[C@]23O[C@H]2[C@H](C[C@](C)(O)[C@@H](OC(C)=O)C2=CC(C=O)=C(C1)O2)OC3=O [keikipukalide D (4), keikipukalide D]",> 50 mg/L
6,"C=C(C)[C@H]1CC2=C(C=O)C=C(O2)[C@H]2O[C@]2(C)C[C@H]2C=C(C(=O)O2)[C@@H](OC(C)=O)C1 [keikipukalide E (5), keikipukalide E]",> 50 mg/L
7,"C=C(C)[C@@H]1CCC2=C[C@H](C[C@@]3(C)O[C@@H]3C3=CC(C=O)=C(C1)O3)OC2=O [pukalide aldehyde (6), pukalide aldehyde]",> 50 mg/L
